# Reference: PubChem BioAssay (NCI)
#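 In this assay, cells in 96-well plates receive the compound at five concentrations for 48 hours. Endpoints are linearly interpolated between the surrounding concentrations. GI50: concentration for 50% inhibition of growth. TGI: concentration producing complete growth inhibition.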
# How the values were obtained:
# Assay in all cases: NCI tumour cell line growth inhibition, 48 h
# MOLT-4 leukemia = system: MOLT-4 leukemia
# HCT-116 colon = system: HCT-116 colon
# ACHN renal = system: ACHN renal
# SK-MEL-2 melanoma = system: SK-MEL-2 melanoma
# HCC-2998 colon = system: HCC-2998 colon
# TK-10 renal = system: TK-10 renal
# MALME-3M melanoma = system: MALME-3M melanoma
# RPMI-8226 leukemia = system: RPMI-8226 leukemia
# SK-OV-3 ovarian = system: SK-OV-3 ovarian
# UO-31 renal = system: UO-31 renal
# SF-268 CNS = system: SF-268 CNS
# HOP-62 NSCLC = system: HOP-62 NSCLC
# MDA-MB-231 breast = system: MDA-MB-231 breast
# HS 578T breast = system: HS 578T breast
# SN12C renal = system: SN12C renal
# BT-549 breast = system: BT-549 breast
smiles,measurement,setting,value
O=C1C=C(N2CCCC2)C=C(N2CCCC2)C1,TGI,MOLT-4 leukemia,> 100 µM
same,TGI,HCT-116 colon,> 100 µM
same,TGI,ACHN renal,> 100 µM
same,TGI,SK-MEL-2 melanoma,> 100 µM
same,TGI,HCC-2998 colon,> 100 µM
same,TGI,TK-10 renal,> 100 µM
same,TGI,MALME-3M melanoma,> 100 µM
same,TGI,RPMI-8226 leukemia,> 100 µM
same,TGI,SK-OV-3 ovarian,> 100 µM
same,TGI,UO-31 renal,> 100 µM
same,TGI,SF-268 CNS,> 100 µM
same,TGI,HOP-62 NSCLC,> 100 µM
COC(=O)c1ccc2c(c1)CC1(C2)Cc2cc3c(c(C(=O)OC)c2C1)CCCC3 (configuration not stated),TGI,MOLT-4 leukemia,> 100 µM
same,TGI,HCT-116 colon,> 100 µM
same,TGI,ACHN renal,> 100 µM
same,TGI,HCC-2998 colon,> 100 µM
same,TGI,MDA-MB-231 breast,> 100 µM
same,TGI,HS 578T breast,> 100 µM
same,TGI,TK-10 renal,> 100 µM
same,TGI,MALME-3M melanoma,> 100 µM
same,TGI,RPMI-8226 leukemia,> 100 µM
same,TGI,SK-OV-3 ovarian,> 100 µM
same,TGI,SN12C renal,> 100 µM
same,TGI,UO-31 renal,> 100 µM
same,TGI,SF-268 CNS,> 100 µM
same,TGI,HOP-62 NSCLC,> 100 µM
O=C1Nc2cccc3ncn(c23)C2=C1CCCC2,TGI,MOLT-4 leukemia,> 100 µM
same,TGI,HCT-116 colon,> 100 µM
same,TGI,ACHN renal,> 100 µM
same,TGI,SK-MEL-2 melanoma,> 100 µM
same,TGI,HCC-2998 colon,> 100 µM
same,TGI,TK-10 renal,> 100 µM
same,TGI,MALME-3M melanoma,> 100 µM
same,TGI,RPMI-8226 leukemia,> 100 µM
same,TGI,SK-OV-3 ovarian,> 100 µM
same,TGI,SN12C renal,> 100 µM
same,TGI,UO-31 renal,> 100 µM
same,TGI,SF-268 CNS,> 100 µM
O=C1/C(=C\c2ccc([N+](=O)[O-])cc2)Sc2scc(-c3ccc(O)c(O)c3)[n+]21,TGI,MOLT-4 leukemia,51.3 µM
same,TGI,HCT-116 colon,75.2 µM
same,TGI,ACHN renal,47.5 µM
same,TGI,SK-MEL-2 melanoma,29.3 µM
same,TGI,HCC-2998 colon,19 µM
same,TGI,MDA-MB-231 breast,66.9 µM
same,TGI,HS 578T breast,63.7 µM
same,TGI,TK-10 renal,10.6 µM
same,TGI,RPMI-8226 leukemia,15.2 µM
same,TGI,SK-OV-3 ovarian,26.2 µM
same,TGI,SN12C renal,50 µM
same,TGI,UO-31 renal,22.3 µM
same,TGI,SF-268 CNS,21 µM
same,TGI,HOP-62 NSCLC,27.5 µM
COc1cc(C2C(Cl)C(=O)N2n2cnc3ccccc3c2=O)cc(OC)c1OC (configuration not stated),TGI,MOLT-4 leukemia,> 100 µM
same,TGI,HCT-116 colon,> 100 µM
same,TGI,ACHN renal,> 100 µM
same,TGI,SK-MEL-2 melanoma,> 100 µM
same,TGI,HCC-2998 colon,> 100 µM
same,TGI,TK-10 renal,> 100 µM
same,TGI,MALME-3M melanoma,> 100 µM
same,TGI,RPMI-8226 leukemia,> 100 µM
same,TGI,SK-OV-3 ovarian,> 100 µM
same,TGI,SN12C renal,> 100 µM
same,TGI,UO-31 renal,> 100 µM
same,TGI,SF-268 CNS,> 100 µM
same,TGI,HOP-62 NSCLC,> 100 µM
CCN(CC)CCNC(=O)c1ccc([N+](=O)[O-])cc1OC,TGI,MOLT-4 leukemia,> 100 µM
same,TGI,HCT-116 colon,> 100 µM
same,TGI,ACHN renal,> 100 µM
same,TGI,SK-MEL-2 melanoma,> 100 µM
same,TGI,TK-10 renal,> 100 µM
same,TGI,MALME-3M melanoma,> 100 µM
same,TGI,SK-OV-3 ovarian,> 100 µM
same,TGI,SN12C renal,> 100 µM
same,TGI,UO-31 renal,> 100 µM
same,TGI,SF-268 CNS,> 100 µM
same,TGI,HOP-62 NSCLC,> 100 µM
CCOc1cc(/C=N\N(C)C)cc(/C=N\N(C)C)c1O,TGI,MOLT-4 leukemia,> 100 µM
same,TGI,HCT-116 colon,> 100 µM
same,TGI,ACHN renal,56 µM
same,TGI,SK-MEL-2 melanoma,77 µM
same,TGI,HCC-2998 colon,> 100 µM
same,TGI,MDA-MB-231 breast,> 100 µM
same,TGI,HS 578T breast,> 100 µM
same,TGI,TK-10 renal,> 100 µM
same,TGI,MALME-3M melanoma,> 100 µM
same,TGI,RPMI-8226 leukemia,> 100 µM
same,TGI,SK-OV-3 ovarian,> 100 µM
same,TGI,SN12C renal,> 100 µM
same,TGI,UO-31 renal,> 100 µM
same,TGI,SF-268 CNS,61.2 µM
same,TGI,HOP-62 NSCLC,> 100 µM
COCCOCN(C(=O)C1=CCC2(CC1)OCCO2)c1ccccc1I,TGI,MOLT-4 leukemia,> 50 µM
same,TGI,HCT-116 colon,> 50 µM
same,TGI,ACHN renal,> 50 µM
same,TGI,SK-MEL-2 melanoma,> 50 µM
same,TGI,HCC-2998 colon,> 50 µM
same,TGI,MDA-MB-231 breast,> 50 µM
same,TGI,TK-10 renal,> 50 µM
same,TGI,RPMI-8226 leukemia,> 50 µM
same,TGI,SK-OV-3 ovarian,> 50 µM
same,TGI,SN12C renal,> 50 µM
same,TGI,UO-31 renal,> 50 µM
same,TGI,HOP-62 NSCLC,> 50 µM
COc1cc([C@@H]2c3cc4c(cc3[C@H](OC3OC5COC(C(C)C)OC5C(O)C3O)C3COC(=O)[C@@H]32)OCO4)cc(OC)c1O (some centres not stated),TGI,MOLT-4 leukemia,> 100 µM
same,TGI,HCT-116 colon,13.5 µM
same,TGI,ACHN renal,15.6 µM
same,TGI,SK-MEL-2 melanoma,31.5 µM
same,TGI,MDA-MB-231 breast,28.8 µM
same,TGI,HS 578T breast,42.3 µM
same,TGI,TK-10 renal,93.5 µM
same,TGI,MALME-3M melanoma,36 µM
same,TGI,BT-549 breast,15.9 µM
same,TGI,RPMI-8226 leukemia,42.5 µM
same,TGI,SK-OV-3 ovarian,39.1 µM
same,TGI,UO-31 renal,22.3 µM
same,TGI,SF-268 CNS,35 µM
same,TGI,HOP-62 NSCLC,24.4 µM
CC(=O)O[C@H]1C(=O)[C@@]2(C)C([C@H](OC(=O)c3ccccc3)[C@]3(O)C[C@H](OC(=O)[C@H](O)[C@H](NC(=O)c4ccccc4)c4ccc(Cl)cc4)C(C)=C1C3(C)C)C1(OC(C)=O)CO[C@@H]1C[C@@H]2O (some centres not stated),TGI,MOLT-4 leukemia,2.36 µM
same,GI50,ACHN renal,1.66 µM
same,TGI,ACHN renal,> 100 µM
same,TGI,SK-MEL-2 melanoma,0.0635 µM
same,TGI,HCC-2998 colon,0.0105 µM
same,GI50,TK-10 renal,0.0171 µM
same,TGI,TK-10 renal,14.4 µM
same,TGI,MALME-3M melanoma,26.3 µM
same,TGI,RPMI-8226 leukemia,4.67 µM
same,GI50,UO-31 renal,1.97 µM
same,TGI,UO-31 renal,11 µM
same,GI50,HOP-62 NSCLC,0.0321 µM
same,TGI,HOP-62 NSCLC,26.5 µM
Cc1ccc(S(=O)(=O)N2CCCSCCSCCCSCC2)cc1,TGI,MOLT-4 leukemia,> 100 µM
same,TGI,HCT-116 colon,> 100 µM
same,TGI,HCC-2998 colon,> 100 µM
same,TGI,MDA-MB-231 breast,> 100 µM
same,TGI,TK-10 renal,> 100 µM
same,TGI,BT-549 breast,> 100 µM
same,TGI,SK-OV-3 ovarian,> 100 µM
same,TGI,SN12C renal,> 100 µM
same,TGI,UO-31 renal,> 100 µM
same,TGI,SF-268 CNS,> 100 µM
same,TGI,HOP-62 NSCLC,> 100 µM
CN1CCN(c2nc3ccccc3nc2C(=O)c2ccc(Cl)cc2)CC1,TGI,MOLT-4 leukemia,> 100 µM
same,TGI,HCT-116 colon,> 100 µM
same,TGI,ACHN renal,> 100 µM
same,TGI,SK-MEL-2 melanoma,> 100 µM
same,TGI,HCC-2998 colon,99.7 µM
same,TGI,HS 578T breast,> 100 µM
same,TGI,TK-10 renal,> 100 µM
same,TGI,MALME-3M melanoma,48.1 µM
same,TGI,RPMI-8226 leukemia,77.4 µM
same,TGI,SK-OV-3 ovarian,> 100 µM
same,TGI,UO-31 renal,> 100 µM
same,TGI,SF-268 CNS,> 100 µM
same,TGI,HOP-62 NSCLC,> 100 µM
O=C1NCC2(CCNCC2)N1c1ccccc1,TGI,MOLT-4 leukemia,> 100 µM
same,TGI,HCT-116 colon,> 100 µM
same,TGI,ACHN renal,> 100 µM
same,TGI,SK-MEL-2 melanoma,> 100 µM
same,TGI,HCC-2998 colon,> 100 µM
same,TGI,MDA-MB-231 breast,> 100 µM
same,TGI,HS 578T breast,> 100 µM
same,TGI,TK-10 renal,> 100 µM
same,TGI,MALME-3M melanoma,> 100 µM
same,TGI,RPMI-8226 leukemia,> 100 µM
same,TGI,SN12C renal,> 100 µM
same,TGI,SF-268 CNS,> 100 µM
same,TGI,HOP-62 NSCLC,> 100 µM
